Laboratory results reported in ChEMBL document CHEMBL1158966, “Chemical characterization and pharmacological activity of nazlinin, a novel indole alkaloid from Nitraria schoberi” (1991).
Activity calls are given as the source filed them. The rule behind the calls is not given here.

Legend:
[1] = organism: Oryctolagus cuniculus; experiment: (§1) Contractile activity in rabbit mesenteric artery; assay type: functional
[2] = as §1; assay type: functional, Oryctolagus cuniculus
[3] = Contractile activity in rabbit mesenteric arteries relative to control; assay type: functional; conditions: Oryctolagus cuniculus, Mesenteric artery
[4] = test system: Aorta; experiment: Contractile activity in endothelium-intact rabbit aortic rings in presence of ketanserin tartrate; assay type: functional, tissue-based; conditions: Oryctolagus cuniculus
[5] = organism: Oryctolagus cuniculus; experiment: Vasorelaxant activity against PGF2-alpha-induced contraction in endothelium-intact rabbit aortic rings in presence of prazosin; assay type: functional, tissue-based; conditions: Aorta
[6] = organism: Oryctolagus cuniculus; experiment: Vasorelaxant activity against PGF2-alpha-induced contraction in endothelium-intact rabbit aortic rings in presence of propranolol hydrochloride; assay type: functional, tissue-based; conditions: Aorta
[7] = test system: Aorta; experiment: Contractile activity in endothelium-intact rabbit aortic rings at >40 nmol to 400 nmol; assay type: functional, tissue-based; conditions: Oryctolagus cuniculus
[8] = organism: Oryctolagus cuniculus; experiment: Vasorelaxant activity against PGF2-alpha-induced contraction in endothelium-intact rabbit aortic rings up to 40 nmol; assay type: functional, tissue-based; conditions: Aorta
[9] = organism: Oryctolagus cuniculus; experiment: Vasorelaxant activity against PGF2-alpha-induced contraction in endothelium-intact rabbit aortic rings in presence of atropine sulfate; assay type: functional, tissue-based; conditions: Aorta
[10] = organism: Oryctolagus cuniculus; experiment: Vasorelaxant activity against PGF2-alpha-induced contraction in endothelium-intact rabbit aortic rings in presence of ketanserin tartrate; assay type: functional, tissue-based; conditions: Aorta
[11] = organism: Oryctolagus cuniculus; experiment: Vasorelaxant activity against PGF2-alpha-induced contraction in endothelium-denuded rabbit aortic rings at 0.04 to 400 nmol; assay type: functional, tissue-based; conditions: Aorta
[12] = organism: Oryctolagus cuniculus; experiment: Vasorelaxant activity against PGF2-alpha-induced contraction in endothelium-intact rabbit aortic rings in presence of indomethacin; assay type: functional, tissue-based; conditions: Aorta
[13] = Contractile activity in rabbit celiac arteries relative to control; assay type: functional; conditions: Oryctolagus cuniculus, Celiac artery
[14] = organism: Oryctolagus cuniculus; experiment: (§2) Contractile activity in rabbit celiac artery; assay type: functional
[15] = as §2; assay type: functional, Oryctolagus cuniculus
[16] = organism: Oryctolagus cuniculus; experiment: Vasorelaxant activity against PGF2-alpha-induced contraction in endothelium-intact rabbit aortic rings in presence of phentolamine; assay type: functional, tissue-based; conditions: Aorta

NC1CCCCNCCc2c1[nH]c1ccccc21 (stereo not given) [NAZLININ]
Activity [1]: Dose-dependent effect
ED50 [2]: 70 nmol
Emax [3]: 83%
Activity [4]: inactive
Activity [5]: Active
Activity [6]: Active
Activity [7]: Active
Activity [8]: Active
Activity [9]: Active
Activity [10]: Active
Activity [11]: inactive
Activity [12]: Active
Emax [13]: 71%
Activity [14]: Dose-dependent effect
ED50 [15]: 115 nmol
Activity [16]: Active

NCCc1c[nH]c2ccc(O)cc12 [SEROTONIN]
Activity [1]: Dose-dependent effect
ED50 [2]: 0.126 nmol
Emax [3]: 108%
Activity [7]: Active
Activity [8]: Active
Activity [11]: inactive
Emax [13]: 110%
Activity [14]: Dose-dependent effect
ED50 [15]: 0.156 nmol
